Molecular target: Complement factor D (Homo sapiens, UniProt P00746)
Experiment: In Vitro Assay: Recombinant human factor D (expressed in E. coli and purified using standard methods) at 10 nM concentration is incubated with test compound at various concentrations for 1 hour at room temperature in 0.1 M Hepes buffer, pH 7.5, containing 1 mM MgCl2, 1 M NaCl and 0.05% CHAPS. A synthetic substrate Z-Lys-thiobenzyl and 2,4-dinitrobenzenesulfonyl-fluoresceine are added to final concentrations of 200 μM and 25 μM, respectively. The increase in fluorescence is recorded at excitation of 485 nm and emission at 535 nm in a microplate spectrofluorimeter.

Complement factor D, sequence (P00746 whole entry): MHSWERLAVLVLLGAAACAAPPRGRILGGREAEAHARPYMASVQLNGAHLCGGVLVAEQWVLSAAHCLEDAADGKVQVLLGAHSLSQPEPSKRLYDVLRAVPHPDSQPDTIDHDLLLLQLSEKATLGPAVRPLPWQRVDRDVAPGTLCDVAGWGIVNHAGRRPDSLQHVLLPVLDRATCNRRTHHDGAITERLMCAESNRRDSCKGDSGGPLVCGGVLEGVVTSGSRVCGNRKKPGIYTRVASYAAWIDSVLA

| Structure (SMILES) | IC50 |
| --- | --- |
| CC(=O)c1nn(CC(=O)N2[C@@H]3C[C@@H]3C[C@H]2C(=O)NCCCC(F)(F)F)c2ncccc12 | 1140 nM |
| CC(F)(F)CCNC(=O)[C@@H]1C[C@H]2C[C@H]2N1C(=O)Cn1nc(C(N)=O)c2ccccc21 | 1050 nM |
